Eleven compounds from ChEMBL document CHEMBL5331134, “Identification of Brain-Penetrant ATP-Competitive mTOR Inhibitors for CNS Syndromes” (J Med Chem, 2023) can be followed below.

Series [1] in a line: Efflux ratio of apparent permeability across basolateral to apical side over apical to basolateral side in MDCK-MDR1 cells. In kind it is ADME, cell-based, Canis lupus familiaris. As to conditions: dog.
The target in series [2] is T1, Cytochrome P450 3A4 (Homo sapiens, UniProt P08684). The series can be described thus: Inhibition of CYP3A4 (unknown origin) assessed as Kobs. In kind it is ADME.
T1 sequence (P08684 whole entry): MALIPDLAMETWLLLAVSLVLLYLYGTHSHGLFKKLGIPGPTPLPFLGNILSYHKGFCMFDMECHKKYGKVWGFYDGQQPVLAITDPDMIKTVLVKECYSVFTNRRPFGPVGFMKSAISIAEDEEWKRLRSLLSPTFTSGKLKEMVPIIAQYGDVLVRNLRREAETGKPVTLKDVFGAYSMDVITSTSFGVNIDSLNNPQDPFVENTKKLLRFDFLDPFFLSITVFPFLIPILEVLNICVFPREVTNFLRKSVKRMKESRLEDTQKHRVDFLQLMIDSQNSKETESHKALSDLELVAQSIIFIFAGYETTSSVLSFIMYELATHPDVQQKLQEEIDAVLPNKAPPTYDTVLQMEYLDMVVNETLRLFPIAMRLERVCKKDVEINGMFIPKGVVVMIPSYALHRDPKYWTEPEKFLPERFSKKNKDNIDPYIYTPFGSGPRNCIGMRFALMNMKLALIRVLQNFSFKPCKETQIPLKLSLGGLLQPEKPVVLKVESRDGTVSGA
Series [3] concerns the target 3',5'-cyclic-AMP phosphodiesterase 4D (Homo sapiens, UniProt Q08499). The series can be described thus: Inhibition of PDE4D (unknown origin).
Series [4] in a line: Solubility of compound at pH 6.8. It counts as physicochemical. The note with it: buffer.
Series [5] can be described thus: Apparent permeability across apical to basolateral side in MDCK-MDR1 cells. It counts as ADME, cell-based, Canis lupus familiaris. As to conditions: dog.
The target in series [6] is Serine/threonine-protein kinase ATR (Homo sapiens, UniProt Q13535). The series can be described thus: Inhibition of ATR (unknown origin)-driven CHK1 phosphorylation.
Sequence of Serine/threonine-protein kinase ATR (Q13535 whole entry): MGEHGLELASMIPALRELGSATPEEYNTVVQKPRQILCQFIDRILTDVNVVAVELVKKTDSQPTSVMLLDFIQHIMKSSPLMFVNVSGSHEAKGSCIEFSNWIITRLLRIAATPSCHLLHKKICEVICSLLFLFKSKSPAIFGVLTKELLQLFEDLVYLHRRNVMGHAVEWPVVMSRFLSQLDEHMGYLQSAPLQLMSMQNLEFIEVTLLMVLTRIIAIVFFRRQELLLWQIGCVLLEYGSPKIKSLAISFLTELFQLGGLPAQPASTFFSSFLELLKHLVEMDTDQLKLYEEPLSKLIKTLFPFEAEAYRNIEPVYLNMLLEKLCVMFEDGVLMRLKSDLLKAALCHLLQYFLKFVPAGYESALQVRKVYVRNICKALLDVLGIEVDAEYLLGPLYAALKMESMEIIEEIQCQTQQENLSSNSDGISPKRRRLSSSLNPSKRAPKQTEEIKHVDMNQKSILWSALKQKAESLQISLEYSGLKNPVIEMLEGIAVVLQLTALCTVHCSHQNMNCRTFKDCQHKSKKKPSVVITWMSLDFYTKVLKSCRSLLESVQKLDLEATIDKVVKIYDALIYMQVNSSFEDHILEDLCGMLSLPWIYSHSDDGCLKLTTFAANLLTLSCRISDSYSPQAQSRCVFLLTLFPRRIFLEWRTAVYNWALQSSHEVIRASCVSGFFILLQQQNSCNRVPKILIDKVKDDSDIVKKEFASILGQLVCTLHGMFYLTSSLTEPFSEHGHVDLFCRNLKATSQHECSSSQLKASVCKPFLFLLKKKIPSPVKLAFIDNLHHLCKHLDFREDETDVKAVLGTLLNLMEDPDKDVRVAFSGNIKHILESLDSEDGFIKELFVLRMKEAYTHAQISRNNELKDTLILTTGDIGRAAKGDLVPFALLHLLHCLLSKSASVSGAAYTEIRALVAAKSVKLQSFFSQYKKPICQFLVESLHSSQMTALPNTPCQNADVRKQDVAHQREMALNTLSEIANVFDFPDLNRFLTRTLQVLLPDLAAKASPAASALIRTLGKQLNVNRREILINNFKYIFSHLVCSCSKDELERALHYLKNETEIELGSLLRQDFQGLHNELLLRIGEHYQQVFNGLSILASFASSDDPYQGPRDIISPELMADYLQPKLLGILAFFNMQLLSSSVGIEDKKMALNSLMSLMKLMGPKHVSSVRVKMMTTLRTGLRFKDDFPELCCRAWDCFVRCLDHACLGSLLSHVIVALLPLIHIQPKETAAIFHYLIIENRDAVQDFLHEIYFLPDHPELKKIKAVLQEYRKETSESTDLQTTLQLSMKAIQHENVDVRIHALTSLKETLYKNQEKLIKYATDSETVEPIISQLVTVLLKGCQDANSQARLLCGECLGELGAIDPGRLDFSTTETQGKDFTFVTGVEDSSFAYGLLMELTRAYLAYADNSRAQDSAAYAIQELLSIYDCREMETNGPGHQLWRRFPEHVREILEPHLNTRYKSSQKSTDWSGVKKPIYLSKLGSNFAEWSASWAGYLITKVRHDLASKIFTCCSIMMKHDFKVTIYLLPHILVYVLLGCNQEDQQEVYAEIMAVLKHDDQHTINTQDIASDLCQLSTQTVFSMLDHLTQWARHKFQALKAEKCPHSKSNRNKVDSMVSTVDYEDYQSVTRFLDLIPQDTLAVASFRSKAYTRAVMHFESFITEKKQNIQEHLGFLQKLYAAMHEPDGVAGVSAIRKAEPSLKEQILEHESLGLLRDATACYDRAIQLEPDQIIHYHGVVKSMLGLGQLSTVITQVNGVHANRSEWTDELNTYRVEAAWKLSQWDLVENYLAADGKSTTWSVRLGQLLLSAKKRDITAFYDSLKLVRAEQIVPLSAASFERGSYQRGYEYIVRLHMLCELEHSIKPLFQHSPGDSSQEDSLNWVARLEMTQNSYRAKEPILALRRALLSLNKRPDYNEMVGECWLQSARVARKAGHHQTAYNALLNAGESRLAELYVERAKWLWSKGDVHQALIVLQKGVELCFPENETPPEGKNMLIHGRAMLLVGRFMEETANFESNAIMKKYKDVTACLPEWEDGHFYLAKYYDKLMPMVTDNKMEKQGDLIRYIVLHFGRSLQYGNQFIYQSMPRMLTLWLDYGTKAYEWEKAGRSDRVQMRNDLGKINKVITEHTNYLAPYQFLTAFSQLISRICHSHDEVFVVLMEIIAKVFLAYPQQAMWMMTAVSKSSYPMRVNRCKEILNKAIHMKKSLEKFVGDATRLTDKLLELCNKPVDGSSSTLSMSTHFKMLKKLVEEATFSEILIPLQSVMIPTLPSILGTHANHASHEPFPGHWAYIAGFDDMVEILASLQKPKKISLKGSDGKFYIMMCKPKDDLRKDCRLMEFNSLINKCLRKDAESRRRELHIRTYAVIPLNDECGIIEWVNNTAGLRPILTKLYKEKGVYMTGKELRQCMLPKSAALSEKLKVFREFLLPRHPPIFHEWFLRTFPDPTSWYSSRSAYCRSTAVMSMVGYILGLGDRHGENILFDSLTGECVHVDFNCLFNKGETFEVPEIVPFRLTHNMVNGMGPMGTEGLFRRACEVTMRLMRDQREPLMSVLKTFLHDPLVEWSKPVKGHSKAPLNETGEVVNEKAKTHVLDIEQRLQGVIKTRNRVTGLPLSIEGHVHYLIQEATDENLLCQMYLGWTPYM
The nature of series [7]: Apparent permeability across basolateral to apical side in MDCK-MDR1 cells. In kind it is ADME, cell-based, Canis lupus familiaris. The note with it: dog.
Series [8] in a line: Genotoxicity in human TK6 cells assessed as micronuclei formation in absence of S9 fraction measured after 3 hrs by micronucleus test. In kind it is toxicity, cell-based. The note with it: tk6, 3 h.
Series [9] concerns the target Myosin light chain kinase, smooth muscle (Homo sapiens) (UniProt Q15746). The series can be described thus: Inhibition of MYLK (unknown origin) assessed as residual activity at 10 uM relative to control.
Series [10] can be described thus: Genotoxicity in human TK6 cells assessed as micronuclei formation by micronucleus test. In kind it is toxicity, cell-based.
Series [11] deals with 1-phosphatidylinositol 3-phosphate 5-kinase (Homo sapiens) (UniProt Q9Y2I7). The series can be described thus: Inhibition of PIKfyve in human U2OS cells coexpressing GFP-tagged FoxO3alpha assessed as residual activity at 10 uM incubated for 2 to 24 hrs by Hoechst staining based analysis relative to control. It counts as cell-based. The note with it: time 2-24 hrs.
Series [12] is described as follows: Genotoxicity in human TK6 cells assessed as micronuclei formation in presence of S9 fraction measured after 3 hrs by micronucleus test. The note with it: s9, 3 h. It counts as toxicity, subcellular.
The target in series [13] is T1, Cytochrome P450 3A4. The series can be described thus: Inhibition of CYP3A4 (unknown origin). In kind it is ADME.
Series [14] in a line: Phototoxicity against mouse BALB/3T3 clone A31 cells assessed as reduction in cell viability incubated for 1 hr followed by irradiated with 5 J/cm^2 of light dose measured after 24 hrs by neutral red uptake assay. It counts as toxicity, cell-based. The note with it: balb/3t3 clone a31, 1 h.
The target of series [15] is Dual specificity tyrosine-phosphorylation-regulated kinase 1A (Homo sapiens) (UniProt Q13627). The series can be described thus: Inhibition of DYRK1A (unknown origin) assessed as residual activity at 10 uM relative to control.
A further series deals with CYP2C9 (Homo sapiens, UniProt P11712). Put plainly: Inhibition of CYP2C9 (unknown origin). It counts as ADME.
Sequence of CYP2C9 (P11712 whole entry): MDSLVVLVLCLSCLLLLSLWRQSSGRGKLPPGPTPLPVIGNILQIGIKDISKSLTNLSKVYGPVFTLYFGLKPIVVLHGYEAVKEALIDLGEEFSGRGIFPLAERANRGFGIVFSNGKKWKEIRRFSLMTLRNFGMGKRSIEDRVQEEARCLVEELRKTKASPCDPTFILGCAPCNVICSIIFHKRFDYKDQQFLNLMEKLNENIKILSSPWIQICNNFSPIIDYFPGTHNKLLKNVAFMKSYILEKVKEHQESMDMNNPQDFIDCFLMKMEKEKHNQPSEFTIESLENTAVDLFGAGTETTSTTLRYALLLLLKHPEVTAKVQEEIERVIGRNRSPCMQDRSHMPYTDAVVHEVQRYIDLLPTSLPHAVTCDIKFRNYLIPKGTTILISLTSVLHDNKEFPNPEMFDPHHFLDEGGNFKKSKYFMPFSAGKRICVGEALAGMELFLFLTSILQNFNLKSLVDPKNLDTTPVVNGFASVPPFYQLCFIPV
The nature of series [16]: Genotoxicity in human TK6 cells assessed as micronuclei formation in absence of S9 fraction measured after 20 hrs by micronucleus test. It counts as toxicity, cell-based. As to conditions: tk6, 20 h.
The nature of series [17]: Metabolic stability in cynomolgus monkey liver microsomes assessed as intrinsic clearance at 1 uM incubated for 30 mins in presence of NADPH by LC-MS/MS analysis. It counts as ADME, Macaca fascicularis, Microsome. The note with it: read-out: CLH. In general terms: Liver microsomes are vesicles of endoplasmic reticulum, rich in cytochrome P450 enzymes.
Another series addresses CYP2D6 (Homo sapiens, UniProt P10635). The series can be described thus: Inhibition of CYP2D6 (unknown origin). It counts as ADME.
Series [18] has as its target T2, Serine/threonine-protein kinase mTOR (Mus musculus, UniProt Q9JLN9). Put plainly: Inhibition of mTOR in TSC1 knockout mouse MEF cells assessed as reduction in phosphorylated S6 level at serine 240/244 residues incubated for 2 hrs by Hoechst/Alexa Fluor 647 staining based analysis. In kind it is cell-based.
Series [19] in a line: Phototoxicity against mouse BALB/3T3 clone A31 cells assessed as photo-irradiation factor incubated for 1 hr followed by irradiated with 5 J/cm^2 of light dose measured after 24 hrs by neutral red uptake assay. It counts as toxicity, cell-based. As to conditions: balb/3t3 clone a31, 1 h.
Series [20] has as its target Serine/threonine-protein kinase mTOR (Homo sapiens) (UniProt P42345). The series can be described thus: Inhibition of mTOR (unknown origin) assessed as residual activity at 10 uM relative to control.
Series [21] can be described thus: Metabolic stability in mouse liver microsomes assessed as intrinsic clearance at 1 uM incubated for 30 mins in presence of NADPH by LC-MS/MS analysis. It counts as ADME, Microsome. The note with it: read-out: CLH.
A short description of series [22]: Genotoxicity in human TK6 cells assessed as micronuclei formation in presence of S9 fraction measured after 20 hrs by micronucleus test. In kind it is toxicity, subcellular. As to conditions: s9, 20 h.
Series [23] in a line: Metabolic stability in human liver microsomes assessed as intrinsic clearance at 1 uM incubated for 30 mins in presence of NADPH by LC-MS/MS analysis. It counts as ADME, Microsome. The note with it: read-out: CLH.
Series [24] is described as follows: Metabolic stability in dog liver microsomes assessed as intrinsic clearance at 1 uM incubated for 30 mins in presence of NADPH by LC-MS/MS analysis. It counts as ADME, Canis lupus familiaris, Microsome. As to conditions: read-out: CLH.
Series [25] deals with T2, Serine/threonine-protein kinase mTOR. The series can be described thus: Inhibition of mTOR in Tsc1 knockout mouse neurons assessed as reduction in phosphorylated S6 level incubated for 4 hrs by Hoechst staining based immunofluorescence analysis. It counts as cell-based, Neuron.

Values after ≈ are worked out from the molar mass of the structure shown.

Sequence of 3',5'-cyclic-AMP phosphodiesterase 4D (Q08499 whole entry): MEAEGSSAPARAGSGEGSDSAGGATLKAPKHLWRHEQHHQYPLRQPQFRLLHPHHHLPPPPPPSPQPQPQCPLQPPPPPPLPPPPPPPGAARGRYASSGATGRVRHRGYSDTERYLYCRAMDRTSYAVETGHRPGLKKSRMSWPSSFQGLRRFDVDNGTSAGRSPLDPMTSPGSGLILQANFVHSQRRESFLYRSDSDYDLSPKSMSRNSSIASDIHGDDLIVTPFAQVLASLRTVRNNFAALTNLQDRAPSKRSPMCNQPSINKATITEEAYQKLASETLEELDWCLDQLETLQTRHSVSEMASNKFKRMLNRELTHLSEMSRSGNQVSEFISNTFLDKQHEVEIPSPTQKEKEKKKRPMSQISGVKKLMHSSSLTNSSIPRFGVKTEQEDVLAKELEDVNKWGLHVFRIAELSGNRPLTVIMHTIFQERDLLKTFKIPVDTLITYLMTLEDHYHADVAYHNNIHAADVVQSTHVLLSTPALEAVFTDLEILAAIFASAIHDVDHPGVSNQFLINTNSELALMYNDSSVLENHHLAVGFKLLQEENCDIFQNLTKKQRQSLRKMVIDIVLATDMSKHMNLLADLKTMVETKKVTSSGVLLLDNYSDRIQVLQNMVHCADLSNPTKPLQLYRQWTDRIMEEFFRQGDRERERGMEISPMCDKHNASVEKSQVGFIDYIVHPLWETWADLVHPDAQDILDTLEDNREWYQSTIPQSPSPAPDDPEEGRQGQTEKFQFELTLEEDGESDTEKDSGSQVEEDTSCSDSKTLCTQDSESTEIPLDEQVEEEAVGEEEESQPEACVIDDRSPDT
Sequence of CYP2D6 (P10635 whole entry): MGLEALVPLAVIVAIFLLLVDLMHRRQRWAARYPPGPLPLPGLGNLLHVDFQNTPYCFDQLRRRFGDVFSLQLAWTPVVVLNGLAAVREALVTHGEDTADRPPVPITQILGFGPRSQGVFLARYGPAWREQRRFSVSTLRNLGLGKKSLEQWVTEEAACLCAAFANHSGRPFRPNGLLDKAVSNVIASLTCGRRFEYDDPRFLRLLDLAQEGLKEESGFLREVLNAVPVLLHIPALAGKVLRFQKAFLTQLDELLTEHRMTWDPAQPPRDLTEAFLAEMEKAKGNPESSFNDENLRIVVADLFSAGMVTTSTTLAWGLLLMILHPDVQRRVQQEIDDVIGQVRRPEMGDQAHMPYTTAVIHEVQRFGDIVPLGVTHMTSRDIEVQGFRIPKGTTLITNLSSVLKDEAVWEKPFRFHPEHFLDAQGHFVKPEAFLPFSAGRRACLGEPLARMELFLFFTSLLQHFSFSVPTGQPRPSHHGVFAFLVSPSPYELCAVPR

For the compound `C[C@@H]1COCCN1c1cc(N2CCOC[C@@H]2C)nc2[nH]c(-c3cc(O)ccc3F)nc12`, the efflux ratio (commonly the permeability from basolateral to apical divided by that in the opposite direction, in the common usage) in [1] came to 0.61. The Kobs on Cytochrome P450 3A4 [2] turned out to be 0.004 min⁻¹. Besides, the concentration for half-maximal inhibition (IC50) (commonly the concentration that inhibits the measured activity by half) in [3] was 6000 nM; in series [6], 7140 nM. The solubility (as a rule, the dissolved amount per volume that the medium holds) in series [4] stood at 53 µg/mL (≈ 124 µM). Moreover, the Papp A→B (in general, how fast a substance crosses the layer from the apical side) in [5] came out at 25.6 ×10⁻⁶ cm/s. The Papp B→A (usually the apparent permeability from the basolateral to the apical side of a cell layer) in series [7] stood at 15.5 ×10⁻⁶ cm/s.
With `C[C@@H]1COCCN1c1nc(N2CCOC[C@@H]2C)nc2sc(-c3cc[nH]n3)nc12`, the Activity result in series [8] is “Toxic”; in [9] it was 0.15%; in series [10] it was “Toxic”; in [11], 0.3%; in [12], “Toxic”; in series [14], “Toxic”. For the same compound, the Activity is 0.15% in series [15]; “Toxic” in series [16]; 253 in series [19]; 1.3% in series [20]; “Toxic” in series [22]. Also, the Kobs on Cytochrome P450 3A4 [2] amounted to 0.006 min⁻¹. Further, the 50% inhibitory concentration (IC50) on Cytochrome P450 3A4 [13] was 33200 nM; against CYP2C9 it was greater than 50000 nM; at CYP2D6, greater than 50000 nM; in series [18], 5 nM. For the same compound, in series [5], the apical-to-basolateral permeability (Papp A→B) was 27.4 ×10⁻⁶ cm/s. Further, the microsomal CLint at 1 µM in [17] was 82 µL/min/mg; in series [21], 22 µL/min/mg; in series [23], 92 µL/min/mg; in series [24] it was 26 µL/min/mg. In series [7], the Papp B→A was 25.4 ×10⁻⁶ cm/s.
Regarding `C[C@@H]1COCCN1c1nc(N2CCOC[C@@H]2C)nc2[nH]c(-c3cc[nH]n3)nc12`, the IC50 in series [3] is 4900 nM; in series [18], 16 nM.
With `C[C@@H]1COCCN1c1nc(N2CCOC[C@@H]2C)cc2sc(-c3cc[nH]n3)nc12`, the values for the half-maximal inhibitory concentration (IC50) in series [3] and in series [18] were 960 nM and 96 nM, respectively.
Take `C[C@@H]1COCCN1c1nc(N2CCOC[C@@H]2C)cc2[nH]c(-c3cc[nH]n3)nc12`: the results for the concentration for half-maximal inhibition (IC50) in series [3] and in series [18] were 11000 nM and 46 nM, respectively.
`C[C@@H]1COCCN1c1cc(N2CCOC[C@@H]2C)cc2sc(-c3cc[nH]n3)nc12`: the half-inhibitory concentration (IC50) in [3] was determined as 42 nM; in series [18], 15 nM.
With `C[C@@H]1COCCN1c1cc(N2CCOC[C@@H]2C)nc2[nH]c(-c3nccs3)nc12`, the efflux ratio in series [1] came out at 0.66. Besides, on Cytochrome P450 3A4 [2], the Kobs was determined as 0.021 min⁻¹. In addition, the concentration for half-maximal inhibition (IC50) is 21000 nM in series [3] and 24000 nM in series [6]. In series [4], this compound registered a solubility of 250 µg/mL (≈ 624 µM). Also, the apical-to-basolateral permeability (Papp A→B) in series [5] is 12.7 ×10⁻⁶ cm/s. Besides, the Papp B→A in [7] amounted to 8.24 ×10⁻⁶ cm/s.
Turning to `CO[C@H]1C[C@@H]2CC[C@@H](C)[C@@](O)(O2)C(=O)C(=O)N2CCCC[C@H]2C(=O)O[C@H]([C@H](C)C[C@@H]2CC[C@@H](OCCO)[C@H](OC)C2)CC(=O)[C@H](C)/C=C(\C)[C@@H](O)[C@@H](OC)C(=O)[C@H](C)C[C@H](C)/C=C/C=C/C=C/1C` [EVEROLIMUS], the half-maximal inhibitory concentration (IC50) in series [25] was 0.005 nM.
As for `C[C@@H]1COCCN1c1cc(N2CCOC[C@@H]2C)nc2[nH]c(-c3cc[nH]n3)cc12`, the IC50 in [3] came out at 16000 nM; in series [18], 34 nM.
With `C[C@@H]1COCCN1c1cc(N2C3CCC2COC3)nc2[nH]c(-c3ccccn3)nc12`, the efflux ratio in [1] amounted to 0.84. Moreover, at Cytochrome P450 3A4 [2], the Kobs was found to be 0.036 min⁻¹. The IC50 in [3] worked out at 9200 nM; in series [18], 6.6 nM; in [6] it was 2250 nM. Besides, the solubility in series [4] is less than 2 µg/mL. Moreover, the Papp A→B in [5] turned out to be 9.57 ×10⁻⁶ cm/s. Also, in series [7], the Papp B→A amounted to 8.04 ×10⁻⁶ cm/s.
In the case of `C[C@@H]1COCCN1c1cc(N2CCOC[C@@H]2C)nc2[nH]c(-c3cc[nH]n3)nc12`, the efflux ratio in series [1] amounted to 2.52. The Kobs on Cytochrome P450 3A4 [2] is 0.004 min⁻¹. Also, the half-inhibitory concentration (IC50) in [3] is 18000 nM; in series [18] it was 7.7 nM; in [6], 1110 nM. Further, the concentration in solution in series [4] (solubility) was 160 µg/mL (≈ 417 µM). The apical-to-basolateral permeability (Papp A→B) in [5] was found to be 15.9 ×10⁻⁶ cm/s. The basolateral-to-apical permeability (Papp B→A) in [7] is 40 ×10⁻⁶ cm/s.
